Source: the supplement of paper PMC10307832

Experiments:
Test in all cases: relative viability (nuclei count vs DMSO), 5 days (fraction); higher = more cells survive
Seliciclib + Tozasertib = compound: CC[C@H](CO)Nc1nc(NCc2ccccc2)c2ncn(C(C)C)c2n1 [Seliciclib] + Cc1cc(Nc2cc(N3CCN(C)CC3)nc(Sc3ccc(NC(=O)C4CC4)cc3)n2)n[nH]1 [Tozasertib] (partner 0.1 µM)
How it was run: (§1)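 For relative viability, nuclei counts in treated wells were divided by those in vehicle wells. Lung cancer cell lines had been pin-tool dosed in 1536-well plates the day after seeding and cultured for 5 days, then fixed and stained in one step (final 0.05% Triton X-100, 1% formaldehyde, 1 ug/ml Hoechst) and imaged at 4×. Doses were one drug alone or a fixed anchor-drug dose plus five library-drug doses (not always all listed) in √10 steps, and values are duplicate-plate medians.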

Seliciclib + Phenformin = compound: CC[C@H](CO)Nc1nc(NCc2ccccc2)c2ncn(C(C)C)c2n1 [Seliciclib] + N=C(N)NC(=N)NCCc1ccccc1 [Phenformin] (partner 250 µM)
How it was run: as §1

Seliciclib + Navitoclax = compound: CC[C@H](CO)Nc1nc(NCc2ccccc2)c2ncn(C(C)C)c2n1 [Seliciclib] + CC1(C)CCC(c2ccc(Cl)cc2)=C(CN2CCN(c3ccc(C(=O)NS(=O)(=O)c4ccc(N[C@H](CCN5CCOCC5)CSc5ccccc5)c(S(=O)(=O)C(F)(F)F)c4)cc3)CC2)C1 [Navitoclax] (partner 0.5 µM)
How it was run: as §1

Seliciclib = compound: CC[C@H](CO)Nc1nc(NCc2ccccc2)c2ncn(C(C)C)c2n1 [Seliciclib]
How it was run: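 Hoechst staining, done together with fixation and permeabilisation, marked nuclei for 4× imaging and MetaXpress counting. This followed 5 days without medium change after lung cancer cell lines, kept overnight at 37 °C in 1536-well plates, were pinned with five library-drug doses (not always all listed) spaced by √10 on vehicle-anchored plates. Viability is the ratio of treated-well to vehicle-well nuclei, expressed as a median across plates. Plates passed only at control CV below 25% with at least one doubling.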

| Cell Line | relative viability (Seliciclib + Tozasertib; first compound 0.08 µM) | relative viability (Seliciclib + Tozasertib; first compound 0.253 µM) | relative viability (Seliciclib + Tozasertib; first compound 0.8 µM) | relative viability (Seliciclib + Tozasertib; first compound 2.53 µM) | relative viability (Seliciclib + Tozasertib; first compound 8 µM) | relative viability (Seliciclib + Phenformin; first compound 0.08 µM) | relative viability (Seliciclib + Phenformin; first compound 0.253 µM) | relative viability (Seliciclib + Phenformin; first compound 0.8 µM) | relative viability (Seliciclib + Phenformin; first compound 2.53 µM) | relative viability (Seliciclib + Phenformin; first compound 8 µM) | relative viability (Seliciclib + Navitoclax; first compound 0.08 µM) | relative viability (Seliciclib + Navitoclax; first compound 0.253 µM) | relative viability (Seliciclib + Navitoclax; first compound 0.8 µM) | relative viability (Seliciclib + Navitoclax; first compound 2.53 µM) | relative viability (Seliciclib + Navitoclax; first compound 8 µM) | relative viability (Seliciclib; 0.08 µM) | relative viability (Seliciclib; 0.253 µM) | relative viability (Seliciclib; 0.8 µM) | relative viability (Seliciclib; 2.53 µM) | relative viability (Seliciclib; 8 µM) |
| --- | --- | --- | --- | --- | --- | --- | --- | --- | --- | --- | --- | --- | --- | --- | --- | --- | --- | --- | --- | --- |
| HCC-78 | 0.367 | 0.405 | 0.411 | 0.39 | 0.381 | 0.706 | 0.795 | 0.65 | 0.536 | 0.474 | 0.73 | 0.969 | 0.738 | 0.703 | 0.557 | 1 | 1.05 | 0.91 | 0.703 | 0.733 |
| HCC-366 | 0.135 | 0.0662 | 0.155 | 0.387 | 0.0931 | 0.618 | 0.716 | 0.571 | 0.62 | 0.506 | 1.01 | 0.699 | 1.03 | 1.17 | 0.947 | 1.01 | 1.06 | 0.998 | 1.03 | 0.938 |
| HCC-827 | 0.415 | 0.413 | 0.42 | 0.383 | 0.324 | 0.4 | 0.422 | 0.402 | 0.435 | 0.351 | 1 | 1.03 | 1.01 | 0.976 | 0.953 | 1.04 | 1.07 | 1.01 | 1.05 | 0.907 |
| HOP-62 | 0.388 | 0.354 | 0.38 | 0.377 | 0.244 | 0.665 | 0.699 | 0.75 | 0.713 | 0.576 | 1.01 | 1.1 | 0.909 | 1.12 | 0.926 | 1.04 | 1.1 | 1.08 | 1 | 0.94 |
| IA-LM |  |  |  |  |  |  |  |  |  |  | 0.738 | 1.15 | 0.732 | 0.772 | 0.72 | 1.01 | 1.1 | 0.919 | 1 | 0.819 |
| LC-2-ad | 0.55 | 0.479 | 0.429 | 0.426 | 0.438 | 0.552 | 0.579 | 0.593 | 0.368 | 0.514 | 0.419 | 0.505 | 0.379 | 0.494 | 0.271 | 1 | 1.14 | 0.973 | 0.846 | 0.888 |
| LCLC-97TM1 | 0.355 | 0.248 | 0.243 | 0.168 | 0.153 | 0.467 | 0.354 | 0.493 | 0.138 | 0.381 | 0.324 | 0.462 | 0.414 |  | 0.223 | 0.984 | 1 | 0.911 | 0.473 | 0.651 |
| LCLC-103H | 0.443 | 0.583 | 0.532 | 0.434 | 0.399 | 0.393 | 0.337 | 0.347 | 0.308 | 0.316 |  |  |  |  |  | 1 | 0.934 | 0.929 | 0.836 | 0.914 |
| LK-2 | 0.203 | 0.154 | 0.17 | 0.175 | 0.168 | 0.475 | 0.415 | 0.358 | 0.243 | 0.274 | 0.797 | 0.648 | 0.823 | 0.643 | 0.536 | 0.99 | 0.737 | 0.966 | 0.759 | 0.69 |
| NCI-H358 | 0.11 | 0.0892 | 0.112 | 0.104 | 0.11 | 0.347 | 0.392 | 0.248 | 0.241 | 0.209 |  |  |  |  |  | 0.932 | 0.922 | 0.785 | 0.621 | 0.633 |
| NCI-H522 | 0.711 | 0.523 | 0.547 | 0.49 | 0.614 | 0.731 | 0.655 | 0.645 | 0.599 | 0.709 |  |  |  |  |  | 0.944 | 0.94 | 1.05 | 0.847 | 0.727 |
| NCI-H650 | 0.693 | 0.782 | 0.704 | 0.464 | 0.584 | 0.48 | 0.467 | 0.532 | 0.257 | 0.46 |  |  |  |  |  | 0.942 | 0.892 | 1.24 | 0.591 | 0.831 |
| NCI-H661 | 0.338 | 0.362 | 0.373 | 0.359 | 0.355 | 0.274 | 0.26 | 0.297 | 0.264 | 0.304 |  |  |  |  |  | 0.964 | 1.02 | 0.966 | 0.916 | 0.756 |
| NCI-H1299 |  |  |  |  |  |  |  |  |  |  | 0.996 | 1.14 | 1.02 | 1.03 | 1 | 0.959 | 1.12 | 1.03 | 1.02 | 1.03 |
| NCI-H1563 |  |  |  |  |  | 0.754 | 0.63 | 0.651 | 0.626 | 0.664 |  |  |  |  |  | 1.03 | 0.872 | 1.06 | 0.833 | 0.897 |
| NCI-H1648 | 0.531 | 0.825 | 0.413 | 0.362 | 0.364 |  |  |  |  |  |  |  |  |  |  | 0.922 | 1.11 | 1.18 | 0.721 | 0.704 |
| NCI-H1703 |  |  |  |  |  |  |  |  |  |  | 0.957 | 0.862 | 1.05 | 1.21 | 0.87 | 0.947 | 0.905 | 1.04 | 0.951 | 0.965 |
| NCI-H1792 |  |  |  |  |  | 0.421 | 0.308 | 0.306 |  | 0.329 | 0.616 | 0.583 | 0.663 | 0.443 | 0.609 | 0.938 | 0.939 | 0.944 |  | 0.791 |
| NCI-H2342 | 0.665 | 0.404 | 0.395 | 0.538 | 0.538 | 0.606 | 0.54 | 0.533 | 0.496 | 0.521 |  |  |  |  |  | 0.967 | 0.74 | 0.947 | 0.842 | 0.905 |
| SW 900 | 0.79 | 0.689 | 0.488 | 0.401 | 0.307 | 0.62 | 0.6 | 0.404 | 0.643 | 0.418 |  |  |  |  |  | 0.9 | 0.994 | 1.09 | 0.744 | 0.668 |
